According to ChEMBL document CHEMBL5550160, “Leveraging a rationally designed veliparib-based anilide eliciting anti-leukemic effects for the design of pH-responsive polymer nanoformulation” (Eur J Med Chem, 2024):
Active and inactive are the calls of the source. The rule behind the calls is not given here.

How the values were obtained:
[1] = target: Histone deacetylase 3 (Homo sapiens, UniProt O15379); assay: Inhibition of HDAC3 (unknown origin) using p53 residues 379 to 382 [RHKK(Ac)] as fluorogenic substrate assessed as residual activity at 4.12 x 10^-8M (reference value: 103.08%); details: dose 4.12 10^-8M
[2] = target: T1, Histone deacetylase 7 (Homo sapiens) (UniProt Q8WUI4); assay: Inhibition of HDAC7 (unknown origin) assessed as residual activity at 3.33 x 10^-6M (reference value: 102.66%); details: dose 3.33 10^-6M
T1 sequence (whole entry): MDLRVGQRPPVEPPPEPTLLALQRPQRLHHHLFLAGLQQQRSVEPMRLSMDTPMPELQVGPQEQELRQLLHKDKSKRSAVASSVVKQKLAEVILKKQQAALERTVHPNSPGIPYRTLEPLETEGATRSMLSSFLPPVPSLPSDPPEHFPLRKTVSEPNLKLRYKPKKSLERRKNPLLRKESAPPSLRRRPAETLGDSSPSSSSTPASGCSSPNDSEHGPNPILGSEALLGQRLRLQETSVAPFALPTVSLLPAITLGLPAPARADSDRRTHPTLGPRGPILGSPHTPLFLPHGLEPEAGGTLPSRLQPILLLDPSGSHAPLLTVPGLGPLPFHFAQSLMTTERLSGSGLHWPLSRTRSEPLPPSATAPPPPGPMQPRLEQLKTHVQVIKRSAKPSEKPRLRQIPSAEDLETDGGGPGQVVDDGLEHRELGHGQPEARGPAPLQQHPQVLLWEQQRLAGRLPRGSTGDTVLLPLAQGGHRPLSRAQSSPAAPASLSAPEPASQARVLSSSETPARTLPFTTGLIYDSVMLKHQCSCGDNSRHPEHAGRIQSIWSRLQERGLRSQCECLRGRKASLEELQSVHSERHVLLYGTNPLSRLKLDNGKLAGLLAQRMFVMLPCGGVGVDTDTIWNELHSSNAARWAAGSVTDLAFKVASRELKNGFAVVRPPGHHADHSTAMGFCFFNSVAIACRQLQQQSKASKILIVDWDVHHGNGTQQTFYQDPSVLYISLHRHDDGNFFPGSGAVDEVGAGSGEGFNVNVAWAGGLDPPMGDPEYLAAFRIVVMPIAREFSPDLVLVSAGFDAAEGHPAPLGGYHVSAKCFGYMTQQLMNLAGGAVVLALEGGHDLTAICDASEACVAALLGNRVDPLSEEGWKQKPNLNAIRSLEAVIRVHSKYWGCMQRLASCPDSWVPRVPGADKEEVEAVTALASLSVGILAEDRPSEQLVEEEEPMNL

[3] = target: T1, Histone deacetylase 7 (Homo sapiens); assay: Inhibition of HDAC7 (unknown origin) assessed as residual activity at 1.23 x 10^-7M (reference value: 102.66%); details: dose 1.23 10^-7M
[4] = target: T2, Polyamine deacetylase HDAC10 (Homo sapiens) (UniProt Q969S8); assay: Inhibition of HDAC10 (unknown origin) assessed as residual activity at 1.37 x 10^-8M (reference value: 101.54%); details: dose 1.37 10^-8M
T2 sequence (whole entry): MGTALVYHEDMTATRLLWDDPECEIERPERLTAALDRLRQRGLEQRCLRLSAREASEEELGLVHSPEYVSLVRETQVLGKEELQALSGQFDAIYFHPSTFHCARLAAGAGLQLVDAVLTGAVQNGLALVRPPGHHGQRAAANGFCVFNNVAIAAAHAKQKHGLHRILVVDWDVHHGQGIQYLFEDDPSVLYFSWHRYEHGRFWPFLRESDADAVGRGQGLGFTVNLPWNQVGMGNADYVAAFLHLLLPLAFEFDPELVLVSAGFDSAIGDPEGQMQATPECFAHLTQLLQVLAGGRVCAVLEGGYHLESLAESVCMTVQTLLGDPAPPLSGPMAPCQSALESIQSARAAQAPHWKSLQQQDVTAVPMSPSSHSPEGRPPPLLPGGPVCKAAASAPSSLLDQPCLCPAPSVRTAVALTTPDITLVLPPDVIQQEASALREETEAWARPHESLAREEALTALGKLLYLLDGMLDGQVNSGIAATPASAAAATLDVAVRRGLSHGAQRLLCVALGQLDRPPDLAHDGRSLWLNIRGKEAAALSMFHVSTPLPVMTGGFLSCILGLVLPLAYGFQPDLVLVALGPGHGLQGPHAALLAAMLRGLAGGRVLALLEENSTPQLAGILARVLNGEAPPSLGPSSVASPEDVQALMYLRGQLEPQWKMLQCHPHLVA

[5] = target: T2, Polyamine deacetylase HDAC10 (Homo sapiens); assay: Inhibition of HDAC10 (unknown origin) assessed as residual activity at 5.08 x 10^-10M (reference value: 101.54%); details: dose 5.08 10^-10M
[6] = target: Class 1 histone deacetylase (Homo sapiens) (UniProt Q13547+O15379+Q92769+Q9BY41); assay: Inhibition of class 1 HDAC in human HL-60 cells assessed as upregulation of acetyl histone H3 protein expression 0.5 to 1 times IC50 by Western blot analysis; format: cell-based
[7] = system: HL-60; assay: Induction of cell cycle arrest in G0/G1 phase in human HL-60 cells at 0.5 to 1 times IC50 by PI staining based flow cytometry analysis; format: functional
[8] = system: HL-60; assay: Induction of apoptosis in human HL-60 cells assessed as disintegration of mitochondrial nuclear condensation at 0.5 to 1 times IC50 by DAPI staining based microscopic analysis; format: functional, cell-based

Histone deacetylase 3, sequence (O15379 whole entry, the tested form may be a part): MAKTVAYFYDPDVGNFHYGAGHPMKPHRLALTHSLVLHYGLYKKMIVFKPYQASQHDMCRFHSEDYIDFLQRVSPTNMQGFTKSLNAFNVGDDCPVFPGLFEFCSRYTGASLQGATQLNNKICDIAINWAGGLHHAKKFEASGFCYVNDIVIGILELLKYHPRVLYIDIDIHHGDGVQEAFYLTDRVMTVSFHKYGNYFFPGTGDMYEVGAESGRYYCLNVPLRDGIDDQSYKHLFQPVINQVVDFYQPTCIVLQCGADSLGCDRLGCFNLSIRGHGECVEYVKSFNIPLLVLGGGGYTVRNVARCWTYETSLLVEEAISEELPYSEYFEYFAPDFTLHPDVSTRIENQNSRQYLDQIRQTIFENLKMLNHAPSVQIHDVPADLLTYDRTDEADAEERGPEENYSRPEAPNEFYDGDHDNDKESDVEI

Activity [1]: 91.1%
Activity [2]: 95.6%
Activity [3]: 89.1%
Activity [4]: 97.7%
Activity [5]: 101%
inhibition [6]: Active
Compound: NC(=O)c1cccc2[nH]c(-c3ccc(NCc4ccc(C(=O)Nc5ccccc5N)cc4)cc3)nc12
Activity [7]: Dose-Dependent Effect
Activity [8]: inactive
